What was measured:
alanine racemase (EcAlr) [1] = target: T1, alanine racemase (EcAlr) (Escherichia coli, UniProt P0A6B4); assay: time-dependent inactivation kinetics, partition ratio, dialysis, intact ESI-MS; format: biochemical
T1 construct: gene alr; recombinant EcAlr

alanine racemase (MtAlr) [2] = target: T2, alanine racemase (MtAlr) (Mycobacterium tuberculosis, UniProt P9WQA9); assay: time-dependent inactivation kinetics (poor inactivator, kinact/Ki […] ^−[…] s^−[…]), partition ratio […] dialysis, intact ESI-MS; format: biochemical
T2 construct: gene alr
T2 sequence (P9WQA9 whole entry): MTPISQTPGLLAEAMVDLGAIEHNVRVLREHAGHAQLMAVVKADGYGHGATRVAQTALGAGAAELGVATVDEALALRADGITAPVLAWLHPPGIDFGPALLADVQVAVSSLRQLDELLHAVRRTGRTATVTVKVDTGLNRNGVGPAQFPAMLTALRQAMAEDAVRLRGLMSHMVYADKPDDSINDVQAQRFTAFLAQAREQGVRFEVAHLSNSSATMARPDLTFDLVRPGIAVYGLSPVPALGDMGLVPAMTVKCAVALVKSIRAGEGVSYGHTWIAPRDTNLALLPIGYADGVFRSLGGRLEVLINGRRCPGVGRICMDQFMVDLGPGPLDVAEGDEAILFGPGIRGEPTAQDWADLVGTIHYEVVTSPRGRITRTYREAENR

[3] = target: T3, glutamate racemase (BsMurI) (Bacillus subtilis, UniProt P94556); assay: time-dependent inactivation kinetics (kinact/Ki), dialysis, intact ESI-MS (+[…]), tryptic LC-MS/MS; format: biochemical; settings: read-out: time-dependent inactivation kinetics (kinact/Ki), dialysis, intact ESI-MS (+87)
T3 construct: gene racE; recombinant BsMurI
T3 sequence (P94556 whole entry): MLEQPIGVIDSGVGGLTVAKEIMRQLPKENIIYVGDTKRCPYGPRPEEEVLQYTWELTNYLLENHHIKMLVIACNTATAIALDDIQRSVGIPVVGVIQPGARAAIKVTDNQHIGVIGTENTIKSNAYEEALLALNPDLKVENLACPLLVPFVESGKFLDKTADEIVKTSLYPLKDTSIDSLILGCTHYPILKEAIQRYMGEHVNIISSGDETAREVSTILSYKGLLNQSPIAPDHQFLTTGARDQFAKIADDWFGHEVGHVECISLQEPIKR

alanine racemase (BsAlr) [4] = target: T4, alanine racemase (BsAlr) (Bacillus subtilis, UniProt P10725); assay: time-dependent inactivation kinetics (kinact/Ki […] ^−[…] s^−[…]), partition ratio, dialysis; format: biochemical
T4 construct: gene alr1; recombinant BsAlr
T4 sequence (P10725 1-389): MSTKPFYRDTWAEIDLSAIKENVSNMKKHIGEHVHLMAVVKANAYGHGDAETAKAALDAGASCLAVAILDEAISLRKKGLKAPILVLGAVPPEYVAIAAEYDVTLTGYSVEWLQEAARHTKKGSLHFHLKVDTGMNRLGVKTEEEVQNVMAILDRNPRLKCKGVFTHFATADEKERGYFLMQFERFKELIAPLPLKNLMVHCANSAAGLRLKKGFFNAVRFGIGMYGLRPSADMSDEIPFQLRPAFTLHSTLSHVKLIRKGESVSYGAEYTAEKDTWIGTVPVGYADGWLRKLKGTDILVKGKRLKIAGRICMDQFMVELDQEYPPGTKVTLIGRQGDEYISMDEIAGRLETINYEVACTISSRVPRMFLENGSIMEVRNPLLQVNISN

[5] = target: T3, glutamate racemase (BsMurI); assay: intact ESI-MS covalent adduct and tryptic LC-MS/MS; format: binding
alanine racemase (BsAlr) [6] = target: T4, alanine racemase (BsAlr); assay: partition ratio of inactivation, purified enzyme; format: biochemical
alanine racemase (EcAlr) [7] = target: T1, alanine racemase (EcAlr); assay: partition ratio of inactivation, purified enzyme; format: biochemical
alanine racemase (MtAlr) [8] = target: T2, alanine racemase (MtAlr); assay: partition ratio of inactivation, purified enzyme; format: biochemical

T1 sequence (P0A6B4 whole entry): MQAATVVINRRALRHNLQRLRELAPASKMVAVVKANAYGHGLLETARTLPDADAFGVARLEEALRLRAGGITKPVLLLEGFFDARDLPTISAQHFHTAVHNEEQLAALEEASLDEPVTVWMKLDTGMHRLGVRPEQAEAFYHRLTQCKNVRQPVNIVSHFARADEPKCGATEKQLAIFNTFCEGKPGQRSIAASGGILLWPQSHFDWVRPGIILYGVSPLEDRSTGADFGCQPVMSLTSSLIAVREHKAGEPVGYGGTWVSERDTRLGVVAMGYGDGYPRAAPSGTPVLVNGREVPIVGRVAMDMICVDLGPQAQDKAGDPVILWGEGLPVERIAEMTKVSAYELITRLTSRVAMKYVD

With N[C@H](CCl)C(=O)O [BCDA, β-chloro-D-alanine] the KI (inactivation) (alanine racemase (EcAlr) [1]) was 130 to 230 µM, the KI (inactivation) (alanine racemase (MtAlr) [2]) was 130 to 230 µM and the kinact/KI [3] was 2.7 M⁻¹ s⁻¹. It also gave a KI (inactivation) (alanine racemase (BsAlr) [4]) of 130 to 230 µM.
For N[C@@H](CCl)C(=O)O [BCLA, β-chloro-L-alanine], the “intact ESI-MS covalent adduct and tryptic LC-MS/MS” value [5] was “BCLA modified BsMurI predominantly at C74, the cysteine residue responsible for deprotonation of an incoming D-Glu substrate”.
For CC(=O)OC[C@@H](N)C(=O)O [OADS, O-acetyl–D-serine], the “partition ratio of inactivation, purified enzyme” value (from here on “partition ratio of inactivation”) (alanine racemase (BsAlr) [6]) was “partition ratios were compared for the structurally and mechanistically similar Alr inhibitor O-acetyl–D-serine (OADS)”, the “partition ratio of inactivation” value (alanine racemase (EcAlr) [7]) was “partition ratios were compared for the structurally and mechanistically similar Alr inhibitor O-acetyl–D-serine (OADS)” and the “partition ratio of inactivation” value (alanine racemase (MtAlr) [8]) was “partition ratios were compared for the structurally and mechanistically similar Alr inhibitor O-acetyl–D-serine (OADS)”.

From article PMC5038272, “Glutamate Racemase Is the Primary Target of β-Chloro-D-Alanine in Mycobacterium tuberculosis” (Antimicrobial Agents and Chemotherapy, 2016)
